Target: Beta-secretase 1 (Homo sapiens, UniProt P56817)
Experiment: Enzyme Inhibition Measurements
Settings: pH 4.5; 37 °C
Protocol: Enzyme activities were assayed by monitoring the hydrolysis of substrate in the presence or absence of inhibitor compounds. The hydrolysis was recorded as the increase in fluorescence intensity over a 10 min time period. […] The Ki was calculated by using Ki = IC50/ (1 + [S]/Km), and a Km value determined according to Michaelis-Menten.

Beta-secretase 1, sequence (P56817 whole entry): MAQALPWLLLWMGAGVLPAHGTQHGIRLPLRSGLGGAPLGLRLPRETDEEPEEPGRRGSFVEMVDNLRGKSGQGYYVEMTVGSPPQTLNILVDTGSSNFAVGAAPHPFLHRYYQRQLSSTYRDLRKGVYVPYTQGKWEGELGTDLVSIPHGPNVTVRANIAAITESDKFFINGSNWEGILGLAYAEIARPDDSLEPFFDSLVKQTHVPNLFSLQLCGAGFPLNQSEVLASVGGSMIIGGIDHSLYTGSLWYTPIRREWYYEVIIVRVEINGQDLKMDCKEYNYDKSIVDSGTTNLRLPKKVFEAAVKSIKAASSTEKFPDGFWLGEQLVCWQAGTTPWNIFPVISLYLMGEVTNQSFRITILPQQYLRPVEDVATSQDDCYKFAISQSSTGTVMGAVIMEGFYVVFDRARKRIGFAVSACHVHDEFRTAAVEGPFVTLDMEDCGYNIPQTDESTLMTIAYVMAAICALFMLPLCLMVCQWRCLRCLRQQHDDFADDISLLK

SMILES: CC(C)C[C@H](NC(=O)[C@H](CC(N)=O)NC(=O)[C@@H](N)C(C)C)[C@@H](O)C[C@@H](C)C(=O)N[C@@H](C)C(=O)N[C@@H](CCC(=O)O)C(=O)N[C@@H](Cc1ccccc1)C(=O)O [Val-Asn-LeuAla-Ala-Glu-Phe]
- Ki: 0.036 µM

Reference: BindingDB's records for doi:10.1021/jm0101803 (University of Illinois At Chicago, 2001)
